Key:
[1] = target: IL-17A(FLAG-tagged): IL-17RA(His-tagged) (Homo sapiens, UniProt Q16552, K93Q); assay: IL-17A(FLAG-tagged): IL-17RA(His-tagged) binding disruption Eu-HTRF assay; conditions: class of the average IC50 where tested more than once
Text: IL-17A(FLAG-tagged): IL-17RA(His-tagged) binding disruption Eu-HTRF assay An antibody directed against the FLAG tag of IL-17A (SEQ ID NO: 1) is labeled with the HTRF donor chromophore (Europium-cryptate). IL-17A is present as a dimer that is “locked into” this quaternary structure due to the formation of loop-spanning intramolecular disulfide bridges. The construct of IL-17RA used in the assay excludes the […] portion of the receptor and is fused to a C-terminal 10×His tag (SEQ ID NO:2). An antibody directed against the His tag of the IL-17RA chimera is labeled with the HTRF acceptor chromophore (“D2”). The fluorescence-resonance energy transfer (FRET) depends on the vicinity of the donor chromophore to the acceptor, and interruption of the binding between the IL-17A and IL-17RA causes the reduction/loss of FRET. Therefore, this assay allows to evaluate the compound effect on the binding IL-17A and IL-17RA by monitoring the fluorescence intensity of donor vs acceptor. The assay is run as described below.
40 nl of 2-fold serial diluted compound solution for total 22 dilution points is added into each well of a 1536-well, white, low-volume, non-binding plate (Greiner #782904), then 2 μl of FLAG tagged IL-17A at 2× final concentration (1 μM) in solution of PBS+0.01% Triton-X100 is added to each well. The assay plate is briefly centrifuged then incubated for 1 h at rt. A mixed solution is prepared containing 2×5 nM 10HIS×IL-17RA, 2×2.5 nM Eu-anti-FLAG (CISBIO), 2×5 nM D2-anti-HIS (CISBIO) in PBS+0.01% Triton-X100+200 mM Potassium Fluoride (Sigma 60238) and 2 μl of mix is added to each well of the assay plate. The plate is briefly centrifuged then incubated for 2 h at rt. The HTRF intensities at the wavelength of donor (615 nm) and acceptor (665 nm) are measured using BMG Pherastar. The ratio between intensities at two wavelengths is calculated and plotted against the compound concentration and the data is fitted to a one-site competition model to yield IC50 of the compound.

[2] = system: IL-17A-induced G-CSF production in human normal keratinocyte (NHK); assay: NHK assay: IL-17A-induced G-CSF production in normal human keratinocytes; format: cell-based; conditions: 24 h, IL-17A 5 ng/mL, class of the average IC50 where tested more than once
Outline: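 Adult keratinocytes at 3000-4000 cells/well; recombinant human IL-17A pre-incubated 1 h at rt with titrated compound, then added to cells (final 5 ng/mL IL-17A, 0.2% DMSO, 5% FBS) for 24 h at 37 °C. Supernatant G-CSF quantified by HTRF against a standard curve to give IC50; viability checked by CellTiter-Glo versus DMSO.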

Sequence of UniProt Q16552 (Q16552 with tags, fused parts or gaps K93Q): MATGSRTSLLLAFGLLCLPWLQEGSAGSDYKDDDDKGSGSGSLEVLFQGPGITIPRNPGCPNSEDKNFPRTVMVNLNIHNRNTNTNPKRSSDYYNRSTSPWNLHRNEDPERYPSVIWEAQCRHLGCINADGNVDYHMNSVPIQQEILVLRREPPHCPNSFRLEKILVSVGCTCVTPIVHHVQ

Compound | IC50 [1] [µM] | IC50 ([2]; Homo sapiens, Keratinocyte) [µM] | IC50 [2] [µM]
C[C@H]1CNC(=O)[C@H]1Cc1cnn2cc([C@@H](NC(=O)c3nonc3C3CC3)C3CCC(F)(F)CC3)nc2c1 (relative stereo) [Example 86, 4-Cyclopropyl-N—[(S)-(4,4-difluorocyclohexyl)-[7-[[(3S*,4R*)-4-methyl-2-oxo-pyrrolidin-3-yl]methyl]imidazo[1,2-b]pyridazin-2-yl]methyl]-1,2,5-oxadiazole-3-carboxamide] | 0.4 to 4 | > 4 | –
O=C(N[C@H](c1cn2ncc(C[C@@H]3C(=O)NC[C@H]3C(F)(F)F)cc2n1)C1CCC(F)(F)CC1)c1nonc1C1CC1 (relative stereo) [Example 100, 4-Cyclopropyl-N—[(S)-(4,4-difluorocyclohexyl)-[7-[[(3S*,4S*)-2-oxo-4-(trifluoromethyl)pyrrolidin-3-yl]methyl]imidazo[1,2-b]pyridazin-2-yl]methyl]-1,2,5-oxadiazole-3-carboxamide] | 0.4 to 4 | > 4 | –
O=C(N[C@H](c1cn2ncc(C[C@H]3C(=O)NC[C@@H]3C(F)(F)F)cc2n1)C1CCC(F)(F)CC1)c1nonc1C1CC1 (relative stereo) [Example 101, 4-Cyclopropyl-N—[(S)-(4,4-difluorocyclohexyl)-[7-[[(3R*,4R*)-2-oxo-4-(trifluoromethyl)pyrrolidin-3-yl]methyl]imidazo[1,2-b]pyridazin-2-yl]methyl]-1,2,5-oxadiazole-3-carboxamide] | 0.4 to 4 | 0.4 to 4 | –
O=C(N[C@H](c1cn2ncc(CC3CC(F)(F)CNC3=O)cc2n1)C1CCC(F)(F)CC1)c1nonc1C1CC1 (single isomer, unassigned) [Example 1, 4-Cyclopropyl-N—((S)-(7-(((R*)-5,5-difluoro-2-oxopiperidin-3-yl)methyl)imidazo[1,2-b]pyridazin-2-yl)(4,4-difluorocyclohexyl)methyl)-1,2,5-oxadiazole-3-carboxamide] | < 0.4 | – | < 0.4
O=C(N[C@H](c1cn2ncc(CC3CC(F)(F)CNC3=O)cc2n1)C1CCC(F)(F)CC1)c1nonc1C1CC1 (single isomer, unassigned) [Example 2, 4-Cyclopropyl-N—((S)-(7-(((S*)-5,5-difluoro-2-oxopiperidin-3-yl)methyl)imidazo[1,2-b]pyridazin-2-yl)(4,4-difluorocyclohexyl)methyl)-1,2,5-oxadiazole-3-carboxamide] | 0.4 to 4 | – | > 4
COc1nonc1C(=O)N[C@@H](CCC(C)(C)C(F)(F)F)c1cn2ncc(CC3C[C@@H](C(F)(F)F)NC3=O)cc2n1 (single isomer, unassigned) [Example 5, 4-Methoxy-N-[(1S)-5,5,5-trifluoro-4,4-dimethyl-1-[7-[[(3R*,5S)-2-oxo-5-(trifluoromethyl)pyrrolidin-3-yl]methyl]imidazo[1,2-b]pyridazin-2-yl]pentyl]-1,2,5-oxadiazole-3-carboxamide] | > 4 | – | > 4
COc1nonc1C(=O)N[C@@H](CCC(C)(C)C(F)(F)F)c1cn2ncc(CC3C[C@@H](C(F)(F)F)NC3=O)cc2n1 (single isomer, unassigned) [Example 6, 4-Methoxy-N-[(1S)-5,5,5-trifluoro-4,4-dimethyl-1-[7-[[(3S*,5S)-2-oxo-5-(trifluoromethyl)pyrrolidin-3-yl]methyl]imidazo[1,2-b]pyridazin-2-yl]pentyl]-1,2,5-oxadiazole-3-carboxamide] | < 0.4 | – | < 0.4

Second part, led by results:

IC50 [1] [µM] | Compound | IC50 ([2]; Homo sapiens, Keratinocyte) [µM] | IC50 [2] [µM]
< 0.4 | C[C@H]1C[C@H](Cc2cnn3cc([C@@H](NC(=O)c4nonc4C4CC4)C4CCC(F)(F)CC4)nc3c2)C(=O)N1 (relative stereo) [Example 83, 4-Cyclopropyl-N—((S)-(4,4-difluorocyclohexyl)(7-(((3S*,5S*)-5-methyl-2-oxopyrrolidin-3-yl)methyl)imidazo[1,2-b]pyridazin-2-yl)methyl)-1,2,5-oxadiazole-3-carboxamide] | < 0.4 | –
0.4 to 4 | C[C@@H]1C[C@H](Cc2cnn3cc([C@@H](NC(=O)c4nonc4C4CC4)C4CCC(F)(F)CC4)nc3c2)C(=O)N1 (relative stereo) [Example 85, 4-Cyclopropyl-N—((S)-(4,4-difluorocyclohexyl(7-(((3S*,5R*)-5-methyl-2-oxopyrrolidin-3-yl)methyl)imidazo[1,2-b]pyridazin-2-yl)methyl)-1,2,5-oxadiazole-3-carboxamide] | > 4 | –
0.4 to 4 | C[C@@H]1CNC(=O)[C@@H]1Cc1cnn2cc([C@@H](NC(=O)c3nonc3C3CC3)C3CCC(F)(F)CC3)nc2c1 (relative stereo) [Example 88, 4-Cyclopropyl-N—[(S)-(4,4-difluorocyclohexyl)-[7-[[(3R*,4S*)-4-methyl-2-oxo-pyrrolidin-3-yl]methyl]imidazo[1,2-b]pyridazin-2-yl]methyl]-1,2,5-oxadiazole-3-carboxamide] | > 4 | –
< 0.4 | CC[C@@H]1C[C@H](Cc2cnn3cc([C@@H](NC(=O)c4nonc4C4CC4)C4CCC(F)(F)CC4)nc3c2)C(=O)N1 (relative stereo) [Example 89, 4-Cyclopropyl-N—[(S)-(4,4-difluorocyclohexyl)-[7-[[(3S*,5R*)-5-ethyl-2-oxo-pyrrolidin-3-yl]methyl]imidazo[1,2-b]pyridazin-2-yl]methyl]-1,2,5-oxadiazole-3-carboxamide] | > 4 | –
0.4 to 4 | CC(C)[C@H]1C[C@H](Cc2cnn3cc([C@@H](NC(=O)c4nonc4C4CC4)C4CCC(F)(F)CC4)nc3c2)C(=O)N1 (relative stereo) [Example 93, 4-Cyclopropyl-N—[(S)-(4,4-difluorocyclohexyl)-[7-[[(3S*,5R*)-5-isopropyl-2-oxo-pyrrolidin-3-yl]methyl]imidazo[1,2-b]pyridazin-2-yl]methyl]-1,2,5-oxadiazole-3-carboxamide] | 0.4 to 4 | –
< 0.4 | CC(C)[C@H]1C[C@@H](Cc2cnn3cc([C@@H](NC(=O)c4nonc4C4CC4)C4CCC(F)(F)CC4)nc3c2)C(=O)N1 (relative stereo) [Example 94, 4-Cyclopropyl-N—[(S)-(4,4-difluorocyclohexyl)-[7-[[(3R*,5R*)-5-isopropyl-2-oxo-pyrrolidin-3-yl]methyl]imidazo[1,2-b]pyridazin-2-yl]methyl]-1,2,5-oxadiazole-3-carboxamide] | < 0.4 | –
0.4 to 4 | CC(C)[C@@H]1C[C@@H](Cc2cnn3cc([C@@H](NC(=O)c4nonc4C4CC4)C4CCC(F)(F)CC4)nc3c2)C(=O)N1 (relative stereo) [Example 95, 4-Cyclopropyl-N—[(S)-(4,4-difluorocyclohexyl)-[7-[[(3R*,5S*)-5-isopropyl-2-oxo-pyrrolidin-3-yl]methyl]imidazo[1,2-b]pyridazin-2-yl]methyl]-1,2,5-oxadiazole-3-carboxamide] | > 4 | –
> 4 | CC(C)[C@@H]1C[C@H](Cc2cnn3cc([C@@H](NC(=O)c4nonc4C4CC4)C4CCC(F)(F)CC4)nc3c2)C(=O)N1 (relative stereo) [Example 96, 4-Cyclopropyl-N—[(S)-(4,4-difluorocyclohexyl)-[7-[[(3S*,5S*)-5-isopropyl-2-oxo-pyrrolidin-3-yl]methyl]imidazo[1,2-b]pyridazin-2-yl]methyl]-1,2,5-oxadiazole-3-carboxamide] | > 4 | –
